Measured values: PMC8864676 (Organic & biomolecular chemistry, 2022)
pKi: −log10 of the molar value. Where “and” joins values, the source holds several entries; their conditions need not be identical. Equal values may be shown once.

Assays:
[1] = biological target: PRODH; conditions: cited from earlier work
[2] = biological target: T1, PutA86–630 (PRODH domain of proline utilization A) (Escherichia coli, UniProt P09546); assay: Initial single-point screening of compounds for inhibition of PRODH activity; format: biochemical; conditions: for inhibition in the single-point assay (in words): 13, 15, 16 compared with 1; for inhibition at 5000 µM: read-out: inhibition in the single-point assay
T1 sequence (P09546 86-630): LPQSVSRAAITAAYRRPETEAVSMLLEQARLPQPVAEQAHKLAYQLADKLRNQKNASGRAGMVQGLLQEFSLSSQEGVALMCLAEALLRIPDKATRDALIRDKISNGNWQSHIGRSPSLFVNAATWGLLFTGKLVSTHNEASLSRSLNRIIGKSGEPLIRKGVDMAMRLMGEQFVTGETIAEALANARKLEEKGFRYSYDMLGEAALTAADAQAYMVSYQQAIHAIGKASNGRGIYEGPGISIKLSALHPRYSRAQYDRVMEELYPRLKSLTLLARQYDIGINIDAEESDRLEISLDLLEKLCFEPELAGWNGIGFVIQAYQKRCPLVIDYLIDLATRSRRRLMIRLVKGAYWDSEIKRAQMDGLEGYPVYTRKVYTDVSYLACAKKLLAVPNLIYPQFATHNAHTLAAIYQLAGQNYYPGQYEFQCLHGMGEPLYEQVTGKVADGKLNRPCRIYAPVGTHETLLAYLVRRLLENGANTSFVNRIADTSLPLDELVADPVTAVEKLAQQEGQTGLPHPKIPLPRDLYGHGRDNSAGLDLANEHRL

[3] = biological target: T1, PutA86–630 (PRODH domain of proline utilization A); format: biochemical; conditions: for ΔΔG, loss of binding energy relative to 1 / fold change in Ki relative to 1: chemical double mutant cycle; for fold change in Ki relative to 1: from Ki values; for kcat: kcat of PutA86–630 from the global fit of the data set with this inhibitor
[4] = 5 mM inhibitor, 200 mM L-proline

Molecule: C[C@H](O)C(=O)O [L-lactic acid]
- pKi [1]: ~3.00

Molecule: O=C(O)C1CCCC1 [Compound 16, cyclopentanecarboxylic acid]
- inhibition in the single-point assay (in words) [2, 4]: severely decreases inhibition
- ΔΔG, loss of binding energy relative to 1 ([3]; calculated from Ki values): ~2 kcal/mol
- fold change in Ki relative to 1 [3]: 20 fold
- kcat [3]: 1.35 ± 0.04 s⁻¹

Molecule: O=C1CC(C(=O)O)C1 [Compound 10, 3-oxocyclobutanecarboxylic acid]
- inhibition in the single-point assay (in words) [2, 4]: very little inhibition

Molecule: O=C(O)C1CC1 [Compound 4, cyclopropanecarboxylic acid]
- kcat [3]: 1.20 ± 0.03 s⁻¹
- ΔΔG, decrease of affinity relative to 3 ([3]; ring size decreased from cyclobutane to cyclopropane, calculated from Ki values): 0.3 kcal/mol

Molecule: O=C(O)C1CCCCO1 (centres unmarked) [Compound 15, tetrahydropyran-2-carboxylic acid]
- inhibition in the single-point assay (in words) [2, 4]: severely decreases inhibition

Molecule: CCC(=O)C(=O)O [Compound 17, 2-oxobutyric acid]
- inhibition at 5000 µM [2]: > 50%
- kcat [3]: 1.14 ± 0.02 s⁻¹

Molecule: (S)-(−)-tetrahydro-2-furoic acid [Compound 1, reference compound]
- enzyme activity relative to the no-inhibitor control [2, 4]: 12%
- kcat [3]: 1.16 ± 0.03 s⁻¹
- pKi [1]: 3.00 to 3.70

Molecule: CC(=O)O [acetic acid]
- pKi [1]: ~1.52

Molecule: O=C(O)C1CCC1 [Compound 3, cyclobutanecarboxylic acid]
- reduction of enzyme activity relative to the no-inhibitor control [2, 4]: over 2 fold
- inhibition at 5000 µM [2]: > 50%
- ΔΔG, improvement of affinity relative to 16 ([3]; cyclopentane of 16 decreased to cyclobutane, calculated from Ki values): 0.71 kcal/mol and 0.7 kcal/mol
- kcat [3]: 1.47 ± 0.05 s⁻¹
- ΔΔG, loss of binding energy relative to 18 ([3]; removing the O heteroatom from 18, calculated from Ki values): about 0.2 kcal/mol

Molecule: O=C(O)[C@@H]1CCO1 [Compound 18, (2S)-oxetane-2-carboxylic acid]
- reduction of enzyme activity relative to the no-inhibitor control [2, 4]: over 2 fold
- inhibition at 5000 µM [2]: > 50%
- ΔΔG, loss of binding energy relative to 1 ([3]; calculated from Ki values): 0.95 kcal/mol
- fold change in Ki relative to 1 [3]: 5 fold
- kcat [3]: 1.42 ± 0.04 s⁻¹

Molecule: NC(=O)[C@@H]1CCCO1 [Compound 13, (S)-(−)-tetrahydrofuran-2-carboxamide]
- inhibition in the single-point assay (in words) [2, 4]: decreases inhibition
